Data on 3 compounds can be found in paper PMC5784158, “New 2-Aryl-9-methyl-β-carbolinium salts as Potential Acetylcholinesterase Inhibitor agents: Synthesis, Bioactivity and Structure–Activity Relationship” (Scientific Reports, 2018).

What is called IC50 is the midpoint of a concentration-inhibition curve. A word on the inhibition: it is the relative decrease from the control value, in per cent. The Ki is the equilibrium dissociation constant of an inhibitor or competing ligand from its target.

Series [1] concerns the target T1, AChE (Musca domestica, UniProt Q7YWJ9). Description: biochemical. The series is classed as biochemical, fly.
For a further series, the target named is T2, BuChE (Equus caballus, UniProt P81908).
T2 construct: BuChE (E.C. 3.1.1.8) (BR, 20 u/mg) from horse serum; purchased Shanghai Yuanye biological technology Co. Ltd (Shanghai, China); host or cells: horse serum (tissue-derived)
The series is described as follows: BuChE inhibition, Ellman's method. The series is classed as biochemical, horse. The settings on record: read-out: IC50 ± S.D BuChE. From the text:
There is increasing recognition that BuChE may play an important role in cholinergic transmission[15],[16]. While the level of AChE decreases dramatically in the advanced stage of AD, BuChE increases in brain regions involved in cognitive functions[17],[18]. At this point, BuChE is able to compensate for AChE loss by hydrolyzing ACh. These observations lead one to believe that inhibition of both AChE and BuChE may contribute to improvement of current symptomatic treatments of AD. Therefore, the compounds in Table 2 were also evaluated for BuChE inhibition activity by means of Ellman’s method. […] AChE (E.C. 3.1.1.7) (BR, 200 u/mg) from fly’s head and BuChE (E.C. 3.1.1.8) (BR, 20 u/mg) from horse serum were purchased from Shanghai Yuanye biological technology Co. Ltd (Shanghai, China).
The inhibitory activities of the compounds against AChE were evaluated according to Ellman’s coupled enzyme assay[47] with the following modifications. 90 μL potassium phosphate buffer (PBS, 0.1 M, pH 7.4), 10 μL the solution of 2 units/mL AChE in 0.1 M PBS (pH 7.4) and 10 μL the solution of 200 μM test compounds in the mixed solution of methanol-PBS (pH 7.4) (1:9, V/V) were added to each well of a 96-well plate. The methanol-PBS solution was used as a blank control. After incubation at room temperature for 10 min, 60 μL the solution of 10 mM DTNB in PBS was added into each the well. The plate was placed on crushed ices and cooled for 20 min. To each the well was added 30 μL the solution of 7.5 mM ATCh in PBS (pH 7.4). […] Each test was performed in triplicate. Inhibition rates of the enzyme were calculated relative to a control sample. The inhibitory activities against BuChE were measured as described above for AChE, using 0.7 unit/mL BuChE and 4 mM BuTCh instead of AChE and ATCh as the enzyme and substrate, respectively.
The probit value of the average inhibition rate for each test concentration and the corresponding lg[concentration] were used to establish enzyme inhibition regression equation by the linear least-square fitting method. IC50 values were calculated from the equations.
(In Ellman's method for cholinesterases, released thiocholine reacts with DTNB.)

The nature of series [2]: In vitro cytotoxicity, MTT assay. The settings on record: pig, primary cultured porcine fetal kidney cells. How it is done: (§1) In vitro cytotoxicity assay
(§2) Cytotoxic activity of the compounds was determined using MTT assay1. Primary cultured goat fetal fibroblasts and primary cultured porcine fetal kidney cells were cultured in the DMEM medium (high glucose) and a mixture culture medium consisting of 50% DMEM (high glucose) and 50% DMEM/F12, respectively, supplemented with 10% fetal bovine serum, penicillin (100 U/mL) and streptomycin (100 μg/mL) at 37 ℃ in 5% CO2. The cells at […]
(§3) After removal of the medium, the cells in each well were treated with 200 μL solution containing different concentrations of the tested compounds and vehicle controls which only received an equivalent amount of DMSO in quintuplicate for 48 h at 37 ℃. Thirty microliter of MTT solution (5 mg/mL in PBS) was added to each well with […] for an additional 4 h. After removing the supernatant, 150 μL of DMSO was added to completely dissolve the formazan crystals that had formed in viable cells in the wells. Finally, the plates were […]
(§4) containing the same media as other test wells but no cells were used as blank controls. All the doses were tested in quintuplicate and the experiments were repeated at least three times. The inhibition rates (IRs) were calculated.
(§5) (GraphPad Software Inc., San Diego, CA, USA).
In general terms: Tetrazolium dyes change colour on reduction, which living cells bring about.

The target of series [3] is T1, AChE. The series is described as follows: Kinetic analysis of AChE inhibition (substrate ATCh). The series is classed as biochemical, fly. The settings on record: for Ki: substrate ATCh, read-out: inhibition constant Ki for AChE; for mechanism of AChE inhibition: with respect to substrate ATCh. From the text:
(A and B) The reciprocals of the initial reaction rates and substrate concentrations are plotted. (C and D) The slope values of the lines from graph A or C are plotted versus the inhibitor concentration, affording an equation of linear regression.

A short description of series [4]: In vitro cytotoxicity, MTT assay. To be noted: mouse, mouse neuroblastoma N2a cells.
In series [5] the test system is primary cultured porcine fetal kidney cells. The series is described as follows: In vitro cytotoxicity, MTT assay. To be noted: read-out: Cytotoxicity IC50, primary cultured porcine fetal kidney cells; 48 h. As to the method:
as §1, §2, §3, §4, §5

The subject of series [6] is mouse neuroblastoma N2a cells. The series is described as follows: In vitro cytotoxicity, MTT assay. To be noted: read-out: Cytotoxicity IC50, mouse neuroblastoma N2a cells; 48 h.
Setting [7] is: test concentration of the compound 10 μM.

T1 sequence (Q7YWJ9 81-659): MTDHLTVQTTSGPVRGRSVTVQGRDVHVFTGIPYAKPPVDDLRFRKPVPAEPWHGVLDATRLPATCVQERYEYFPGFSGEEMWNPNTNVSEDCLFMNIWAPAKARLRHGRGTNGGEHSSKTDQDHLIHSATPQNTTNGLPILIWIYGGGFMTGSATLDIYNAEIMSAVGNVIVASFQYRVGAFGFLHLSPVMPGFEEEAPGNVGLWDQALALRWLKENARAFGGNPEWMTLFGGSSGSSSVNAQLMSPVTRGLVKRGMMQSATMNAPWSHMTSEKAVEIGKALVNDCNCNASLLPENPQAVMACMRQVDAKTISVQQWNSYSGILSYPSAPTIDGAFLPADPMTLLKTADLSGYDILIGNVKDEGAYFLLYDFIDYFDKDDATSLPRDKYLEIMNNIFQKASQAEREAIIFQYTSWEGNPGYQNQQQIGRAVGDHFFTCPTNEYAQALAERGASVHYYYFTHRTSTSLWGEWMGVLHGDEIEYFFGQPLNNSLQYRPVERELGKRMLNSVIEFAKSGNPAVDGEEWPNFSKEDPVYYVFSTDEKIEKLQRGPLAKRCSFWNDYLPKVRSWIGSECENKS
T2 sequence (P81908 whole entry): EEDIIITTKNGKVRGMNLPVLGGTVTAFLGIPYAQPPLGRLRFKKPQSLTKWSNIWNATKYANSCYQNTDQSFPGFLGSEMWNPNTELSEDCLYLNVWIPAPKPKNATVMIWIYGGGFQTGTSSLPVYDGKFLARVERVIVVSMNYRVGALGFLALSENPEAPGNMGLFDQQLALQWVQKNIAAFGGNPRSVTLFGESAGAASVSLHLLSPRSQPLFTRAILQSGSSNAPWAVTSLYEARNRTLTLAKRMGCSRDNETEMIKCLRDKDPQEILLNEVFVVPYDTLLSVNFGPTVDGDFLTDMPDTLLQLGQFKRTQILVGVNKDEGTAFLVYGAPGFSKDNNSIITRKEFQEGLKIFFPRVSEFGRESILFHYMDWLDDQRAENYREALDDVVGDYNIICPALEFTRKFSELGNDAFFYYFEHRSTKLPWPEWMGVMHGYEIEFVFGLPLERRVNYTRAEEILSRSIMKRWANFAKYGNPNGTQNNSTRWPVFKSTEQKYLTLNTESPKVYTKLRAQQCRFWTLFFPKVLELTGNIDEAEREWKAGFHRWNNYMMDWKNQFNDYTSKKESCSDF

Consider `Cc1ccc([N+]2=Cc3c(c4ccccc4n3C)CC2)cc1` [Compound A22], for which the “SI: selectivity index, ratio IC50 (BuChE)/IC50 (AChE)” value (“SI: selectivity index, ratio IC50” for short) on AChE [1] amounted to 55.2. The concentration for half-maximal inhibition (IC50) on AChE [1] (read-out: IC50 ± S.D AChE) worked out at 1.45 ± 0.21 µM; at BuChE, 80.1 ± 5.27 µM. Moreover, at AChE [1] (test concentration of the compound 10 μM, read-out: Inhibition rate (%)), the inhibition at 10 µM was 77.6 ± 1.5%. Besides, the half-inhibitory concentration (IC50) at 48 h in series [2] was 5.18 µM; in series [4], 2.13 µM. For the same compound, at AChE [3], the Ki was found to be 0.483 µM. Besides, the “mechanism of AChE inhibition” value on AChE [3] is reported as “competitive”.
With `Cc1ccc(-[n+]2ccc3c4ccccc4n(C)c3c2)cc1.[Br-]` [Compound B22, 9-Methyl-2-(4-methylphenyl)-β-carboline bromide], on AChE [1], the “SI: selectivity index, ratio IC50” value was 111.6. Moreover, at AChE [1] (setting [7]), the “Inhibition rate (%)” value stood at 95.2 ± 0.5 abc %. The IC50 on BuChE worked out at 32.2 ± 1.65 µM; in series [5], 18.1 µM; in series [6], 19.2 µM. The “binding capacity with AChE relative to substrate ATCh” value at AChE [3] (Km of ATCh versus Ki) is listed as ~3835 fold. Further, the “binding capacity with AChE relative to A22” value at AChE [3] (ratio of Ki values) is listed as “approximately 11 fold”. Also, at AChE [3], the inhibitory constant (Ki) amounted to 0.0425 µM. Also, on AChE [3], the “mechanism of AChE inhibition” value is recorded as “competitive”.
`Cn1c2ccccc2c2cc[n+](-c3ccc(Br)cc3Br)cc21.[Br-]` [Compound B33, 9-Methyl-2-(2,4-dibromophenyl)-β-carboline bromide]: at AChE [1], the “SI: selectivity index, ratio IC50” value came to 278.2. The “Inhibition rate (%)” value on AChE [1] (setting [7]) is recorded as 96.7 ± 0.05 a %. In addition, the results for the IC50 (on BuChE; in series [5]; in series [6]) were 30.6 ± 2.31 µM, > 20 µM and 10.6 µM, respectively.
